Assay results reported in the NIST ThermoML archive (doi:10.1021/je7003758).
± gives the expanded uncertainty stated by the source.

Assay: xn = mol fraction of the nth substance listed
Conditions: 298.15 K, Liquid

CCCCCCCCCl [1-chlorooctane] + CN1CCCC1=O
mass density [kg/m3]
Conditions | x2 = 0.0969 | x2 = 0.2014 | x2 = 0.3097 | x2 = 0.4076 | x2 = 0.5021 | x2 = 0.6022 | x2 = 0.7005 | x2 = 0.8007 | x2 = 0.9008
5000 kPa | – | – | 904.7 ± 1.1 | 917 ± 1 | 930.2 ± 0.8 | 945.7 ± 0.7 | 962.8 ± 0.6 | 982.5 ± 0.5 | 1004.9 ± 0.4
5500 kPa | 882 ± 1.4 | 892.7 ± 1.2 | 905 ± 1.1 | 917.3 ± 1 | 930.4 ± 0.9 | 946 ± 0.7 | 963.1 ± 0.6 | 982.8 ± 0.5 | 1005.2 ± 0.4
5900 kPa | – | – | – | – | 930.8 ± 0.9 | – | – | – | –
6000 kPa | 882.3 ± 1.4 | 893.1 ± 1.2 | 905.4 ± 1.1 | 917.6 ± 1 | – | 946.3 ± 0.7 | 963.4 ± 0.6 | 983.1 ± 0.5 | 1005.5 ± 0.4
6500 kPa | 882.7 ± 1.4 | 893.4 ± 1.3 | 905.8 ± 1.1 | 917.9 ± 1 | 931.1 ± 0.9 | 946.6 ± 0.7 | 963.7 ± 0.6 | 983.3 ± 0.5 | 1005.8 ± 0.4
7000 kPa | 883.1 ± 1.4 | 893.8 ± 1.3 | 906.1 ± 1.1 | 918.4 ± 1 | 931.5 ± 0.9 | 946.9 ± 0.7 | 964 ± 0.6 | 983.6 ± 0.5 | 1006.1 ± 0.4
7400 kPa | 883.4 ± 1.4 | – | – | – | – | – | – | – | –
7500 kPa | – | 894.1 ± 1.3 | 906.4 ± 1.1 | 918.6 ± 1 | 931.8 ± 0.9 | 947.2 ± 0.8 | 964.3 ± 0.6 | 983.9 ± 0.5 | 1006.4 ± 0.4
7900 kPa | 883.7 ± 1.4 | – | – | – | – | – | – | – | –
8000 kPa | – | 894.4 ± 1.3 | 906.7 ± 1.2 | 918.9 ± 1 | 932.1 ± 0.9 | 947.5 ± 0.8 | 964.6 ± 0.6 | 984.2 ± 0.5 | 1006.6 ± 0.4
8500 kPa | 884.1 ± 1.5 | 894.8 ± 1.3 | 907 ± 1.2 | 919.2 ± 1 | 932.5 ± 0.9 | 947.8 ± 0.8 | 964.9 ± 0.6 | 984.5 ± 0.5 | 1007 ± 0.4
9000 kPa | 884.4 ± 1.5 | 895.1 ± 1.3 | 907.4 ± 1.2 | 919.6 ± 1 | 932.8 ± 0.9 | 948.1 ± 0.8 | 965.2 ± 0.6 | 984.8 ± 0.5 | 1007.2 ± 0.4
9500 kPa | 884.8 ± 1.5 | 895.5 ± 1.3 | 907.8 ± 1.2 | 920 ± 1.1 | 933.1 ± 0.9 | 948.4 ± 0.8 | 965.5 ± 0.6 | 985.1 ± 0.5 | 1007.5 ± 0.4
9900 kPa | – | – | – | – | – | – | – | 985.4 ± 0.5 | –
10000 kPa | 885.3 ± 1.5 | 895.9 ± 1.4 | 908.1 ± 1.2 | – | – | – | – | – | –
